# Laboratory results reported in patent US10899754B2, “Modulators of indoleamine 2,3-dioxygenase” (GLAXOSMITHKLINE INTELLECTUAL PROPERTY DEVELOPMENT LIMITED, priority 2016, dated 2021).
# Where two headings read alike, the source gives them in different places.
# Key:
# [1] = tested on: human peripheral blood mononuclear cells (PBMC); test: PBMC cytotoxicity assay (CellTiter-Glo); type: cell-based; details: 2 days, pCC50
# How it was run: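 % cytotoxicity was taken from CellTiter-Glo luminescence, using wells without cells and stimulated DMSO wells as references, and fitted by four-parameter curve to give XC50. Cells were human PBMC at 50,000 per well, activated with 100 ng/ml IFN-γ plus 50 ng/ml LPS. Incubation with 11-point, 3-fold dilution series ran for 2 days at 37 °C.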
# [2] = biological target: T1, ePL tagged IDO1 (Homo sapiens, UniProt P14902); test: CETSA (Cellular Thermal Shifting assay) in Hela cells; type: binding; details: BacMam ePL tagged IDO1, 3 hours at 37° C., heated at 53° C. for 3 min
# T1 construct: expressed in transfected cells; host or cells: HeLa cells transduced with BacMam virus
# T1 sequence (P14902 whole entry): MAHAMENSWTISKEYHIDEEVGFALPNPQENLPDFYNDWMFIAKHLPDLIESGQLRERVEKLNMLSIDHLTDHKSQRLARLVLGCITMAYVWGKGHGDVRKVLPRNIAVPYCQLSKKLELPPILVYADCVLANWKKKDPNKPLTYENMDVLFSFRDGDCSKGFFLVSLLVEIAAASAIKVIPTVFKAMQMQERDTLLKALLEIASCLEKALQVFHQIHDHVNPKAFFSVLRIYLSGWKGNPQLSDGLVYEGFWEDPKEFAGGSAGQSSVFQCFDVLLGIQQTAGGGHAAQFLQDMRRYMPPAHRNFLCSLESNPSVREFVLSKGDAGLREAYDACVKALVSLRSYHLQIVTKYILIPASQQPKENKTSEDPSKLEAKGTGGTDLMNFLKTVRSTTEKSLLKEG
# Protocol: Cellular Thermal Shifting assays were used to directly monitor the ligand binding to target proteins in cells. Hela cells were transduced with BacMam virus expressing ePL tagged IDO1 overnight. The cells were then plated over the compounds for 3 hours at 37° C. in cell culture medium containing 1% FBS. The plates were then sealed and heated at 53° C. for 3 min. InCell Hunter reagents were added and luminescence was read in 90 min.
# [3] = biological target: indoleamine 2, 3-dioxygenase (IDO1) (Homo sapiens, UniProt P14902); test: IDO1 PBMC RapidFire MS assay (kynurenine detection by mass spectrometry); type: cell-based; design: to induce the expression of indoleamine 2, 3-dioxygenase (IDO1); host or cells: human PBMC stimulated with IFN-gamma and LPS; details: human PBMC stimulated with IFN-γ and LPS, 2 days, pIC50, read-out: PBMC PXC50 (converted)
# Sequence of indoleamine 2, 3-dioxygenase (IDO1) (P14902 whole entry): as above
# How it was run: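 Kynurenine output, read by RapidFire mass spectrometry as ratio to an internal standard, was measured after 2-day compound exposure (11-point, 3-fold dilutions) of human PBMCs induced with 100 ng/ml IFN-γ and 50 ng/ml LPS. Cell viability tracked alongside via ATP luminescence; XC50 from curve fitting.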
SMILES,PBMC TOX PXC50 [1],EC50 ([2]; read-out: pXC50_1 (converted)) [nM],IC50 [3] [nM],EC50 ([2]; read-out: pXC50_2 (converted)) [nM]
"CC(C)CN(c1ccc([C@H](C)CC(=O)O)cc1Nc1nc(C(F)(F)F)ns1)C1CCOCC1 [Example 20, (R)-3-(4-(Isobutyl(tetrahydro-2H-pyran-4-yl)amino)-3-((3-(trifluoromethyl)-1,2,4-thiadiazol-5-yl)amino)phenyl)butanoic Acid]",<5,9.55,2.51,
"CC(C)CN(c1ccc([C@H](C)CC(=O)O)cc1Nc1nnc(C2CC2)s1)C1CCOCC1 [Example 23, (R)-3-(3-((5-cyclopropyl-1,3,4-thiadiazol-2-yl)amino)-4-(isobutyl (tetrahydro-2H-pyran-4-yl)amino)phenyl)butanoic Acid]",<5,331,3.16,234
